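48-hour exposure; five concentrations; linearly interpolated endpoints. Here, GI50 denotes the concentration required for 50% inhibition of growth.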 Active and inactive are the calls of the source. No stated cut-off is given here; in the data, active = GI50 up to about 1.1 µM and inactive = higher.
Key:
Experiment in all cases: NCI tumour cell line growth inhibition, 48 h
NCI-H226 = tested on: NCI-H226
MOLT-4 = tested on: MOLT-4
NCI-H522 = tested on: NCI-H522
K562 = tested on: K562
UACC-257 = tested on: UACC-257
SW-620 = tested on: SW-620
MCF7 = tested on: MCF7
UACC-62 = tested on: UACC-62
SK-MEL-5 = tested on: SK-MEL-5
SK-MEL-28 = tested on: SK-MEL-28
SK-OV-3 = tested on: SK-OV-3
SK-MEL-2 = tested on: SK-MEL-2
DU-145 = tested on: DU-145
TK-10 = tested on: TK-10
COLO 205 = tested on: COLO 205
SNB-75 = tested on: SNB-75
RPMI-8226 = tested on: RPMI-8226
LOX IMVI = tested on: LOX IMVI
HCC 2998 = tested on: HCC 2998

Row | Compound | GI50 (NCI-H226) | GI50 (MOLT-4) | GI50 (NCI-H522) | GI50 (K562) | GI50 (UACC-257) | GI50 (SW-620) | GI50 (MCF7) | GI50 (UACC-62) | GI50 (SK-MEL-5) | GI50 (SK-MEL-28) | GI50 (SK-OV-3) | GI50 (SK-MEL-2) | GI50 (DU-145) | GI50 (TK-10) | GI50 (COLO 205) | GI50 (SNB-75) | GI50 (RPMI-8226) | GI50 (LOX IMVI) | GI50 (HCC 2998)
1 | O=C(O)c1cc(-c2ccc3cc(O)c(O)cc3c2)ccc1O | > 12.5 µM (inactive) | > 12.5 µM (inactive) | > 12.5 µM (inactive) | > 12.5 µM (inactive) | > 12.5 µM (inactive) | > 12.5 µM (inactive) | > 12.5 µM (inactive) | > 12.5 µM (inactive) | > 12.5 µM (inactive) | > 12.5 µM (inactive) | > 12.5 µM (inactive) | > 12.5 µM (inactive) | > 12.5 µM (inactive) | > 12.5 µM (inactive) | > 12.5 µM (inactive) | 4.94 µM (inactive) |  |  | 
2 | O=C1NCCCc2nonc21 | > 100 µM (inactive) | > 100 µM (inactive) |  | > 100 µM (inactive) | > 100 µM (inactive) | > 100 µM (inactive) | > 100 µM (inactive) | > 100 µM (inactive) | > 100 µM (inactive) | > 100 µM (inactive) | > 100 µM (inactive) | > 100 µM (inactive) | > 100 µM (inactive) | > 100 µM (inactive) | > 100 µM (inactive) | > 100 µM (inactive) | > 100 µM (inactive) | > 100 µM (inactive) | > 100 µM (inactive)
3 | O=C(CCc1ccc(O)cc1)NCCc1ccc(O)cc1 | > 100 µM (inactive) | > 100 µM (inactive) | > 100 µM (inactive) | > 100 µM (inactive) | > 100 µM (inactive) |  | > 100 µM (inactive) | > 100 µM (inactive) | > 100 µM (inactive) | > 100 µM (inactive) | > 100 µM (inactive) | > 100 µM (inactive) | > 100 µM (inactive) | > 100 µM (inactive) | > 100 µM (inactive) |  |  | > 100 µM (inactive) | > 100 µM (inactive)
4 | Oc1ccc(C(c2ccc(O)cc2)c2ccc(O)cc2)cc1 | 10.4 µM (inactive) | 20.6 µM (inactive) | 17.1 µM (inactive) |  | 20.4 µM (inactive) | 26.8 µM (inactive) | 32.4 µM (inactive) | 14.5 µM (inactive) | 13.8 µM (inactive) | 19.3 µM (inactive) | 14 µM (inactive) | 19.8 µM (inactive) | 27.4 µM (inactive) | 22.8 µM (inactive) | 7.16 µM (inactive) |  | 27.2 µM (inactive) | 19.3 µM (inactive) | 18 µM (inactive)
5 | N/C(=N/c1ccc(O)cc1)S(=O)(=O)O | > 100 µM (inactive) | > 100 µM (inactive) | > 100 µM (inactive) | > 100 µM (inactive) | > 100 µM (inactive) | > 100 µM (inactive) | > 100 µM (inactive) | > 100 µM (inactive) | > 100 µM (inactive) |  | > 100 µM (inactive) | > 100 µM (inactive) | > 100 µM (inactive) | > 100 µM (inactive) | > 100 µM (inactive) | > 100 µM (inactive) |  | > 100 µM (inactive) | > 100 µM (inactive)
6 | CCCCCc1nnc(NS(=O)(=O)c2ccc(NC(=O)OCC(C)C)cc2)s1 |  | 20.1 µM (inactive) | 24.5 µM (inactive) | 25.2 µM (inactive) | 79.6 µM (inactive) | 40.6 µM (inactive) | 37.8 µM (inactive) | 29.5 µM (inactive) | 27.1 µM (inactive) | 41.8 µM (inactive) | 31.5 µM (inactive) | 19.1 µM (inactive) | 52 µM (inactive) | 36.9 µM (inactive) | 18.5 µM (inactive) |  | 19.3 µM (inactive) | 37.2 µM (inactive) | 
7 | COC1CC2C=CC3C4OC2(/C(C)=C/C(C)C(C(C)O)OC1=O)C3C(O)C(C)C4OC(=O)c1ccc[nH]1 (centres undefined) |  | 23.4 µM (inactive) | > 100 µM (inactive) |  | 57.8 µM (inactive) | > 100 µM (inactive) | 94.4 µM (inactive) | > 100 µM (inactive) | 38.2 µM (inactive) | > 100 µM (inactive) |  | > 100 µM (inactive) | 82 µM (inactive) | > 100 µM (inactive) | > 100 µM (inactive) |  | 35.6 µM (inactive) | 64 µM (inactive) | 74.6 µM (inactive)
8 | N#Cc1sc2c(c1OC(=O)c1ccc(C(F)(F)F)cc1)c(=O)n(-c1ccccc1)c(=S)n2-c1ccccc1 | 29.8 µM (inactive) | 19.5 µM (inactive) | 0.107 µM (active) | 28.2 µM (inactive) | 42.7 µM (inactive) | 40.2 µM (inactive) | 30.1 µM (inactive) | 22.4 µM (inactive) | 24.9 µM (inactive) | 33.8 µM (inactive) | 38.5 µM (inactive) |  | 38.5 µM (inactive) | 27.6 µM (inactive) | 21.6 µM (inactive) | 27.4 µM (inactive) | 17.4 µM (inactive) | 24.5 µM (inactive) | 34.4 µM (inactive)
9 | Cc1nn(C(=O)Cc2ccccc2)c2c1C(c1ccccc1)SC(=N)N2 (centres undefined) | > 100 µM (inactive) | > 100 µM (inactive) | > 100 µM (inactive) | > 100 µM (inactive) | > 100 µM (inactive) | > 100 µM (inactive) | > 100 µM (inactive) | > 100 µM (inactive) | > 100 µM (inactive) | > 100 µM (inactive) | > 100 µM (inactive) |  | > 100 µM (inactive) | > 100 µM (inactive) | > 100 µM (inactive) | 43.5 µM (inactive) | > 100 µM (inactive) | > 100 µM (inactive) | > 100 µM (inactive)
10 | COC(=O)[C@@H]1[C@H](O)CC[C@H]2[C@@]1(C)CC[C@@H](C)[C@]2(COC(C)=O)CC(=O)c1ccoc1 | > 50 µM (inactive) | 28.6 µM (inactive) | 35.7 µM (inactive) |  | > 50 µM (inactive) | > 50 µM (inactive) | > 50 µM (inactive) | 20.9 µM (inactive) | > 50 µM (inactive) | > 50 µM (inactive) | > 50 µM (inactive) | > 50 µM (inactive) | > 50 µM (inactive) | > 50 µM (inactive) | > 50 µM (inactive) | > 50 µM (inactive) | 26.1 µM (inactive) | > 50 µM (inactive) | 
11 | CC12CCC(=O)N1c1cncnc1N2 (centres undefined) | > 10 µM (inactive) | > 10 µM (inactive) | > 10 µM (inactive) | > 10 µM (inactive) | > 10 µM (inactive) | > 10 µM (inactive) | > 10 µM (inactive) | > 10 µM (inactive) |  |  | > 10 µM (inactive) | > 10 µM (inactive) | > 10 µM (inactive) | > 10 µM (inactive) |  | > 10 µM (inactive) |  | > 10 µM (inactive) | > 10 µM (inactive)
12 | S=C1CSc2c(cnc3ccccc23)N1 | 53.7 µM (inactive) | > 100 µM (inactive) | > 100 µM (inactive) | > 100 µM (inactive) | > 100 µM (inactive) |  | > 100 µM (inactive) | > 100 µM (inactive) | > 100 µM (inactive) | > 100 µM (inactive) | > 100 µM (inactive) |  | > 100 µM (inactive) | 35.1 µM (inactive) | > 100 µM (inactive) | 56.8 µM (inactive) | > 100 µM (inactive) | > 100 µM (inactive) | 
13 | CC(C)(C)[Si](C)(C)OC1/C(=C/C#N)C(n2ccc(=O)[nH]c2=O)OC1CO (centres undefined) |  | > 100 µM (inactive) | > 100 µM (inactive) | 96.2 µM (inactive) |  | > 100 µM (inactive) | > 100 µM (inactive) | > 100 µM (inactive) | > 100 µM (inactive) | > 100 µM (inactive) | > 100 µM (inactive) | > 100 µM (inactive) | > 100 µM (inactive) | > 100 µM (inactive) | > 100 µM (inactive) |  |  |  | 
14 | COC(=O)CC(c1ccccc1)C(C#N)(OP1(=O)OC(c2ccccc2)C(C)N1C)c1ccccc1 (centres undefined) |  | 19.5 µM (inactive) | 35 µM (inactive) | 26.2 µM (inactive) | 34.9 µM (inactive) | 62.1 µM (inactive) | 37.2 µM (inactive) | 47.5 µM (inactive) | 19 µM (inactive) | > 100 µM (inactive) | > 100 µM (inactive) | 27.9 µM (inactive) | > 100 µM (inactive) | > 100 µM (inactive) | 21.3 µM (inactive) | > 100 µM (inactive) | 24.7 µM (inactive) | 59.3 µM (inactive) | > 100 µM (inactive)
15 | CCOC(=O)c1c[nH]c2c(Sc3ccccc3)nccc2c1=O | 95.3 µM (inactive) | 17.8 µM (inactive) | 19.7 µM (inactive) |  | > 100 µM (inactive) | > 100 µM (inactive) | 71.4 µM (inactive) | 36.7 µM (inactive) | 92.7 µM (inactive) | > 100 µM (inactive) | > 100 µM (inactive) | > 100 µM (inactive) | 90.8 µM (inactive) | > 100 µM (inactive) | > 100 µM (inactive) | 71.1 µM (inactive) |  | 31 µM (inactive) | 
16 | Cc1c(O)nc(/C=C/C(=O)O)nc1C(=O)O | > 100 µM (inactive) | > 100 µM (inactive) | > 100 µM (inactive) | > 100 µM (inactive) | > 100 µM (inactive) | > 100 µM (inactive) | > 100 µM (inactive) | > 100 µM (inactive) | > 100 µM (inactive) | > 100 µM (inactive) | > 100 µM (inactive) | > 100 µM (inactive) | > 100 µM (inactive) | > 100 µM (inactive) | > 100 µM (inactive) | > 100 µM (inactive) | > 100 µM (inactive) | > 100 µM (inactive) | 

Source: ChEMBL document CHEMBL1201862, “PubChem BioAssay data set” (2004)
